Consider one molecule from patent publication US20060094059A1, “Methods for identifying new drug leads and new therapeutic uses for known drugs” (Odyssey Thera, Inc., priority 2004, published 2006).

Common to all, as to format: cell-based, human
The test system of assay [1] is phospho-ERK (MAPK) in the presence of VEGF. As to the kind of experiment: Immunofluorescence assay phospho-ERK + VEGF. The note with it: FIG. 3G, compared with the vehicle alone. The procedure: Immunofluorescence was performed on drug-treated cells to assess the post-translational modification status of proteins involved in the pathways of interest. We constructed assays designed to measure the phosphorylation status of key signaling proteins in the absence and presence of a growth factor stimulus. A drug capable of blocking or inhibiting the pathway leading to the signaling protein would in principle cause a decrease in the phosphorylation of that signaling protein in response to the selected growth factor. Such a change in phosphorylation status could be measured by a decrease in fluorescence in the presence of the drug. […]
HEK293T cells were seeded at a density of 7,500/well in poly-D-lys coated, blackwalled 96 well plate (Greiner). […] Phosphorylated ERK was detected by incubating the fixed cells with rabbit phospho-ERK (T202/Y204)-specific antibodies (Cell Signaling Technologies) followed by Alexa488 conjugated goat anti-rabbit antibody (Molecular Probes). […] Fluorescence images were acquired on a Discovery-1 imaging station (Molecular Devices) as described above.
Background fluorescence due to nonspecific binding by the secondary antibody was established with the use of cells that were incubated with BSA/PBS and without primary antibodies. […]

Another assay concerns HSP90:Eef2k. As to the kind of experiment: Protein-fragment complementation assay Hsp90:Eef2k. An excerpt: (§1) To construct dynamic assays for protein-protein complexes, we used a protein-fragment complementation assay strategy (PCAs) in intact human cells. (A variety of other suitable assays, and reporter options, are described in detail below.) The principle of PCA is that complementary polypeptide fragments (F[1] and F[2]) of a reporter protein or enzyme will fold into an active form only if fused to two proteins which interact and bring the complementary fragments of the reporter protein into proximity. Reconstitution of the fragments of the reporter protein generates a fluorescent signal that can be quantified in intact cells, and the amount of the signal is proportional to the amount of the protein-protein complex used in constructing the assay. Given a suitable reporter type, the subcellular location of the complex can also be measured.
Reporter fragments for PCA were generated by oligonucleotide synthesis (Blue Heron Biotechnology, Bothell, Wash.), starting with the sequence of yellow fluorescent protein (YFP). First, oligonucleotides coding for polypeptide fragments YFP[1]and YFP[2] […] Next, PCR mutagenesis was used to generate the mutant fragments IFP[1] and IFP[2]. The IFP[1] fragment corresponds to YFP[1]-(F46L, F64L, M153T) and the IFP[2] fragment corresponds to YFP[2]-(V163A, S175G). […] The YFP[1], YFP[2], IFP[1] and IFP[2] fragments were amplified by PCR to incorporate restriction sites and a linker sequence, described below, in configurations that would allow fusion of a gene of interest to either the 5′- or 3′-end of each reporter fragment. The reporter-linker fragment cassettes were subcloned into a mammalian expression vector (pcDNA3.1Z, Invitrogen) that had been modified to incorporate the replication origin (oriP) of the Epstein Barr virus (EBV). […] Additionally, these vectors still retain the SV40 origin, allowing for episomal expression in cell lines expressing the SV40 large T antigen (e.g. HEK293T, Jurkat or COS). […]

Another assay has as its system Smad3:HDAC. As to the kind of experiment: Protein-fragment complementation assay Smad3:HDAC. The note with it: hit in HDAC/SMAD3 assay; drugs screened at 10 micromolar.
From the text: as §1
Reporter fragments for PCA were generated by oligonucleotide synthesis (Blue Heron Biotechnology, Bothell, Wash.), starting with the sequence of yellow fluorescent protein (YFP). First, oligonucleotides coding for polypeptide fragments YFP[1]and YFP[2] […] Next, PCR mutagenesis was used to generate the mutant fragments IFP[1] and IFP[2]. The IFP[1] fragment corresponds to YFP[1]-(F46L, F64L, M153T) and the IFP[2] fragment corresponds to YFP[2]-(V163A, S175G). […]

`O=C(Nc1ccc([N+](=O)[O-])cc1Cl)c1cc(Cl)ccc1O` [Niclosamide]: the “level of phospho-ERK (intensity of the fluorescence)” value in assay [1] is reported as “decrease in the level of phospho-ERK”. Moreover, the “level of HSP90:Eef2k complexes (intensity of the fluorescence)” value in the assay on HSP90:Eef2k (FIG. 3D) is “decrease in the level”. The Assay activity result is reported as “HSP90/Eef2k,” in the assay with HSP90:Eef2k (hit in HSP90/Eef2k assay, drugs screened at 10 micromolar) and “HDAC/SMAD3,” with Smad3:HDAC.
